Data taken from patent US20250064886A1, “CARDIOVASCULAR AND CEREBROVASCULAR DRUG AND USE THEREOF” (HANGZHOU ADAMERCK PHARMLABS INC., priority 2021, published 2025).
Values joined by “and” are separate entries in the source; they are usually repeats but may differ in a detail not shown here. Equal values may be shown once.

Columns and labels:
tryptase = assay: Sensitization risk: tryptase expression (OD, BAPNA) in zebrafish (Example 2); format: in vivo
Procedure: Experimental method: 2 dpf wild type AB strain zebrafish were randomly selected and placed in a 24-well plate, with each group 6 parallel wells and 10 zebrafish per well. The zebrafish were injected intravenously with samples at a dose of 500 ng/tail and the positive control “C48/80” at a concentration of 1.5 μg/mL, while normal control group was set up. Each well has a capacity of 1 mL.
All experimental groups were given BAPNA by dissolving it in the water. After treatment at 28° C. for 1 day, the liquid was transferred to 96-well plates with 200 μL/well, and the relative absorbance values (OD values) of the expression levels of tryptase in each experimental group were detected using an microplate reader, and the results of the statistical analysis of the OD values were used to evaluate the risk of sensitization by sample. Statistical results were expressed as mean±SE.
Statistical analysis was performed using SPSS software, and p<0.05 indicates significant differences.

rats = assay: Bleeding time in rats, tail clipping (Example 4); format: in vivo, rat
Procedure: Grouping: Divided into 5 groups, with 10 animals in each group. […] The modeling started 30 min after the last dose. Detection index: the blood flow was open after 15 min, the thread was taken out, the residual liquid was sucked dry, the thread attached with thrombus was weighed and the wet weight of thrombus was calculated; the dry weight of thrombus was weighed and calculated after bake-drying in the oven at 50° C. Thrombosis inhibition rate was calculated. Tails were clipped at the end of the experiment to detect bleeding time.

[1] = tested on: rats with focal cerebral ischemia (MCAO)/reperfusion; assay: Preventative administration, cerebral ischemia-reperfusion injury MCAO/R in rats (Example 5); format: in vivo, rat; conditions: preventative; for Cerebral infarction rate (%): tail vein 3 days
Procedure: Experimental method: SD rats were randomly divided into six groups, i.e., pseudosurgery group, model control group, positive control drug ozagre (6 mg/kg) group, and administration drug compound (1) high-dose (67.5 mg/kg) group, medium-dose (22.5 mg/kg) group, and low-dose (7.5 mg/kg) group. The administration group was pre-administered via tail vein injection, while the pseudosurgery group and model control group were given equal volumes of physiological saline once a day for 3 consecutive days. 10 minutes after the last administration, a rat MCAO/R model was established and performed reperfusion 2 hours post ischemia. 24 hours after MCAO reperfusion, the neurobehavioral scores of rats were performed to determine their neurological function; the cerebral infarction rate and cerebral water content in rats were determined using 2,3,5-triphenyltetrazolium chloride (TTC) staining method.

[2] = tested on: Erastin-induced neuronal cells; assay: Cell viability (CCK8) of Erastin-induced neuronal cells (Example 8); format: cell-based, rat; conditions: Erastin 50 μM
Procedure: Experimental method: Primary neuron cells were incubated in a medium containing Erastin (final concentration of 50 μM) for 24 hours, and then incubated in a medium containing different concentrations of the test drug and Erastin (final concentration of 50 μM) for another 24 hours. After incubation, Real time PCR was used to detect mRNA expression of GPX4 in each group of cells, CCK8 assay was used to detect cell viability in each group of cells, C11-BODIPY probe method was used to detect intracellular lipid ROS levels in each group of cells, and PGSK probe method was used to detect iron content in cells.
The experimental data were expressed in means±SD, and statistical differences between groups were determined using one-way ANOVA and Tukey's test, with p-values less than 0.05 considered significant.
After incubation, the CCK8 experiment was used to detect the cell viability of each group of cells. The results were presented as Mean±SD. Compared with control group, ***p<0.0001. Compared with model control group, ^#P<0.05, ^##P<0.01.

SMILES: CC(=O)N[C@H](CSCC1OC2OC3C(CSC[C@@H](NC(C)=O)C(=O)[O-])OC(OC4C(CSC[C@@H](NC(C)=O)C(=O)[O-])OC(OC5C(CSC[C@@H](NC(C)=O)C(=O)[O-])OC(OC6C(CSC[C@@H](NC(C)=O)C(=O)[O-])OC(OC7C(CSC[C@@H](NC(C)=O)C(=O)[O-])OC(OC8C(CSC[C@@H](NC(C)=O)C(=O)[O-])OC(OC9C(CSC[C@@H](NC(C)=O)C(=O)[O-])OC(OC1C(O)C2O)C(O)C9O)C(O)C8O)C(O)C7O)C(O)C6O)C(O)C5O)C(O)C4O)C(O)C3O)C(=O)[O-].[Na+].[Na+].[Na+].[Na+].[Na+].[Na+].[Na+].[Na+] (stereo partly drawn) [Compound (1)]
- Sensitization risk, in words (tryptase; 500 ng/tail): no or substantially no sensitization risk
- Relative sensitization risk (compared with positive control group) (tryptase; 500 ng/tail intravenous): 13%
- Sensitization risk (%) (tryptase; 500 ng/tail intravenous): 11.1%
- Absorbance value (OD value), parallel wells 1-6 (tryptase; 500 ng/tail intravenous, 28° C. 1 day, single wells): 0.05725 and 0.05895 and 0.06195 and 0.06575 and 0.05845 and 0.05605
- Absorbance value (OD value), mean (tryptase; 500 ng/tail intravenous, mean of 6 wells): 0.060
- Bleeding time (rats; 10 mg/kg i.v., x ± s, n = 10): 403.4 ± 185.1 s
- Bleeding time (rats; 20 mg/kg i.v.): 422.6 ± 205.7 s
- Bleeding time (rats; 40 mg/kg i.v.): 428.4 ± 185.6 s
- Effect on the bleeding time in rats, in words (rats; intravenous, compared with model control group): no significant effect
- Cerebral infarction rate (%) ([1]; 7.5 mg/kg (low-dose)): 15.18 ± 4.74 %
- Behavioral score ([1]; 7.5 mg/kg): 2.00 ± 1.07
- Cerebral water content (%) ([1]; 7.5 mg/kg): 80.16 ± 1.03%
- Cerebral infarction rate (%) ([1]; 22.5 mg/kg (medium-dose)): 13.93 ± 6.99 %
- Behavioral score ([1]; 22.5 mg/kg): 1.87 ± 0.64
- Cerebral water content (%) ([1]; 22.5 mg/kg): 79.01 ± 1.27 %
- Cerebral infarction rate (%) ([1]; 67.5 mg/kg (high-dose)): 12.28 ± 10.29 %
- Behavioral score ([1]; 67.5 mg/kg): 1.50 ± 0.53
- Cerebral water content (%) ([1]; 67.5 mg/kg): 78.23 ± 1.84 %
- Cell viability (%) ([2]; 1 μM, 24 h, control = 100, Mean±SD): 57.01 ± 2.82^ %
- Cell viability (%) ([2]; 2.5 μM): 61.77 ± 6.56^ %
- Cell viability (%) ([2]; 5 μM): 65.4 ± 5.81%
- Cell viability (%) ([2]; 10 μM): 76.62 ± 5.99^## %
- Cell viability (%) ([2]; 20 μM): 80.62 ± 5.39^## %
- Cell viability (%) ([2]; 40 μM): 83.43 ± 6.21^## %
